# Legend:
# [1] = system: small bowel motility / small intestinal transit; conditions: cited from earlier work
# [2] = system: methane on breath testing; constipation symptoms; conditions: retrospective study; 10 days; cited from earlier work
# [3] = Example 4A: glucose tolerance test and cholesterol before and after antibiotic in single patients; type: in vivo, human
# Protocol: After an administration of rifaximin at 550 mg, three times a day, the peak glucose was 161 mg/dL. Cholesterol for the same patient was 200 and then 171 after treatment. […] After an administration of neomycin at 500 mg, twice daily, the peak glucose was 121. Cholesterol was 202 before the treatment and was down to 178 after treatment.
# [4] = system: methane producers with constipation predominant IBS; conditions: placebo 5.0±5.1%; cited from earlier work
Molecule,"reduction of proximal small bowel motility (average) ([1]; 5 dogs, methane infused through mid-small bowel fistula)","slowing of small intestinal transit ([1]; in vivo animal study, infusion of methane into the small intestine)",reduction in constipation symptoms [2],reduction in methane [2],"cholesterol after treatment ([3]; Patient 1, rifaximin 550 mg three times a day, 200 before)","peak glucose on glucose tolerance test after treatment ([3]; Patient 1, rifaximin 550 mg three times a day, 260 before antibiotics)",improvement in constipation [4],"peak glucose on glucose tolerance test after treatment ([3]; Patient 2, neomycin 500 mg twice daily, 154 before antibiotics)","cholesterol after treatment ([3]; Patient 2, neomycin 500 mg twice daily, 202 before)"
C [methane],59%,59%,–,–,–,–,–,–,–
CO[C@H]1/C=C/O[C@@]2(C)Oc3c(C)c(O)c4c(O)c(c5c(nc6cc(C)ccn65)c4c3C2=O)NC(=O)/C(C)=C\C=C\[C@H](C)[C@H](O)[C@@H](C)[C@@H](O)[C@@H](C)[C@H](OC(C)=O)[C@@H]1C [rifaximin],–,–,56%,28%,171,161 mg/dL,–,–,–
neomycin,–,–,63%,33%,–,–,44.0±12.3%,121,178

# From US11235022B2, “Methods of diagnosis, selection, and treatment of diseases and conditions caused by or associated with methanogens” (Cedars-Sinai Medical Center, priority 2013, dated 2022)
